# From US10428080B2, “TBK/IKK inhibitor compounds and uses thereof” (Merck Patent GmbH, priority 2015, dated 2019)
# Structures can show the parent of a compound that is named as a salt.
# Key:
# TBK1 = target: T1, TBK1 (Homo sapiens, UniProt Q9UHD2); assay: TBK Biochemical Assay; conditions: read-out: TBK1 IC50
# T1 sequence (Q9UHD2 1-729): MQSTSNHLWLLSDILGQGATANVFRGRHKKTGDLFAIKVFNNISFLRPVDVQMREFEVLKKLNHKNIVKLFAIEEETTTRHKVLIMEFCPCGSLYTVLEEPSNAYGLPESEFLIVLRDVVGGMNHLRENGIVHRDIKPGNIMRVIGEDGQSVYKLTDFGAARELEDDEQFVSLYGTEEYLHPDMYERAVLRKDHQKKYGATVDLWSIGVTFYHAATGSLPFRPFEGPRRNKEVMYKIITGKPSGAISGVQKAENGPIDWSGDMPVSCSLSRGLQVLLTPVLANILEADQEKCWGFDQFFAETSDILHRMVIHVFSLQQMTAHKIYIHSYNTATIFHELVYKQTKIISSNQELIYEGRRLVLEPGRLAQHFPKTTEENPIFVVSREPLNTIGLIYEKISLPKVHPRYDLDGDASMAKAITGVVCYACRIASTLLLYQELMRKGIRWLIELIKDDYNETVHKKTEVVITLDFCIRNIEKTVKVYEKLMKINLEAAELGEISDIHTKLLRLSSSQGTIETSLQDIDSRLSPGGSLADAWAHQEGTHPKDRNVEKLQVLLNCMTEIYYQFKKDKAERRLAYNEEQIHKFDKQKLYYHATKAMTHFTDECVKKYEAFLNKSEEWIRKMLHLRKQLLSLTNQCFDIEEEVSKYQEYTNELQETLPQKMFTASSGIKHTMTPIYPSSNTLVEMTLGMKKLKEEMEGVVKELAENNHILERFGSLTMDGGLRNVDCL
# Procedure, shortened: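 TBK1 enzyme and substrate incubated with compounds (10-point 1:4 dilution, top 30 uM final, 1% DMSO) for 90 min at 25° C, then stopped. Substrate/product peaks read by microfluidic mobility-shift (Caliper LabChip); 10 uM staurosporine as full-inhibition control.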
# IKKε = target: T2, IKKε (Homo sapiens, UniProt Q14164); assay: IKKe Biochemical Assay; conditions: read-out: IKKε IC50
# T2 sequence (Q14164 1-716): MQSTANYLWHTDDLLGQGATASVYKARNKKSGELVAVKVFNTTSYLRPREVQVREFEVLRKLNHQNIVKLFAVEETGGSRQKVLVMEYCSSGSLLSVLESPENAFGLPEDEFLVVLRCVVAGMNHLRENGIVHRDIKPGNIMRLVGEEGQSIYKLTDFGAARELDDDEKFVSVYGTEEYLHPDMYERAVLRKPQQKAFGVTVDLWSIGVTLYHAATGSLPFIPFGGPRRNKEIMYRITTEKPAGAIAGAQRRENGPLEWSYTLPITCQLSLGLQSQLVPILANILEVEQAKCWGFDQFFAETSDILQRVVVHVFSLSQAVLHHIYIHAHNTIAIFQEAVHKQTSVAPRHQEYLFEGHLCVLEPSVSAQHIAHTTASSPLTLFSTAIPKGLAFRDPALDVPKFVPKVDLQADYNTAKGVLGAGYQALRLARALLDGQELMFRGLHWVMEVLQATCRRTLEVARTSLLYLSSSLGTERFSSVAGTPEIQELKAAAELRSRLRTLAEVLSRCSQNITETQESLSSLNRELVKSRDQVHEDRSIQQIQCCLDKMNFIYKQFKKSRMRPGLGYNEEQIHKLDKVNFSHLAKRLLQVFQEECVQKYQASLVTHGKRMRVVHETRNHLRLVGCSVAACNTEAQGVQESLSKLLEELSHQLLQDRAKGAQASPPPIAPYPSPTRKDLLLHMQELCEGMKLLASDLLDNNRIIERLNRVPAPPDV
# Procedure, shortened: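 Recombinant IKKε and substrate were incubated with compound (10-point 1:4 series, top 30 uM final, 1% DMSO) for 90 min at 25° C, then stopped. Substrate-to-product conversion was read by LabChip microfluidic mobility shift; 10 uM staurosporine served as full-inhibition wells.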
Structure (SMILES),IC50 (TBK1),IC50 (IKKε)
"CC1CC(Nc2ccc(-c3ccnc4cc(-c5ccc(C(=O)N(C)C)cc5)oc34)cc2C#N)CC(C)O1 (stereo not shown) [Compound 215, 4-(7-(3-cyano-4-(2,6-dimethyl-tetrahydro-2H-pyran-4-ylamino)phenyl)furo[3,2-b]pyridin-2-yl)-N,N-dimethylbenzamide hydrochloride]",1000 to 5000 nM,100 to 1000 nM
"COc1cc(C(=O)N(C)CCO)cnc1-c1cc2ncc(C(C)C)c(-c3ccc(OC4CCOCC4)c(C#N)c3)c2o1 [Compound 333, 6-[7-[3-cyano-4-(oxan-4-yloxy)phenyl]-6-(propan-2-yl)furo[3,2-b]pyridin-2-yl]-N-(2-hydroxyethyl)-5-methoxy-N-methylpyridine-3-carboxamide]",> 5000 nM,> 5000 nM
"COc1cc(C(=O)N(C)CCO)ncc1-c1cc2nccc(-c3cc(C#N)c(OC4CCOCC4)cn3)c2o1 [Compound 377, 5-[7-[4-cyano-5-(oxan-4-yloxy)pyridin-2-pyridin-2-yl]furo[3,2-b]pyridin-2-yl]-N-(2-hydroxyethyl)-4-methoxy-N-methylpyridine-2-carboxamide]",100 to 1000 nM,100 to 1000 nM
"CN(C)C(=O)c1ccc(-c2cc3nccc(-c4ccc(NC5CCOCC5)c(C#N)c4)c3o2)c(F)c1 [Compound 250, 4-(7-(3-cyano-4-(tetrahydro-2H-pyran-4-ylamino)phenyl)furo[3,2-b]pyridin-2-yl)-3-fluoro-N,N-dimethylbenzamide]",100 to 1000 nM,100 to 1000 nM
"COc1cc(C(=O)N(C)CCO)ccc1-c1cc2ncc(C3CC3)c(-c3ccc(OC4CCOCC4)c(C#N)c3)c2o1 [Compound 306, 4-(7-(3-cyano-4-(tetrahydro-2H-pyran-4-yloxy)phenyl)-6-cyclopropylfuro[3,2-b]pyridin-2-yl)-N-(2-hydroxyethyl)-3-methoxy-N-methylbenzamide]",> 5000 nM,> 5000 nM
"CC1CC(Oc2ccc(-c3ccnc4cc(-c5ccc(C(=O)N(C)C)cc5)oc34)cc2C#N)CCO1 (stereo not shown) [Compound 184, 4-{7-[3-Cyano-4-(2-methyl-tetrahydro-pyran-4-yloxy)-phenyl]-furo[3,2-b]pyridin-2-yl}-N,N-dimethyl-benzamide]",1000 to 5000 nM,100 to 1000 nM
"COc1cc(C(=O)N(C)C)ccc1-c1cc2nccc(-c3cc(C#N)c(OC4CCOCC4)c(C4CC4)c3)c2o1 [Compound 307, 4-(7-(3-cyano-5-cyclopropyl-4-(tetrahydro-2H-pyran-4-yloxy)phenyl)furo[3,2-b]pyridin-2-yl)-3-methoxy-N,N-dimethylbenzamide]",100 to 1000 nM,100 to 1000 nM
"COc1cc(C(=O)N2CCCCC2)ncc1-c1cc2nccc(-c3cc(C#N)c(OC4CCOCC4)cn3)c2o1 [Compound 383, 2-(2-[4-methoxy-6-[(piperidin-1-yl)carbonyl]pyridin-3-yl]furo[3,2-b]pyridin-7-yl)-5-(oxan-4-yloxy)pyridine-4-carbonitrile]",100 to 1000 nM,100 to 1000 nM
"CCOC(=O)c1ccc(-c2cc3nccc(-c4ccc(N5CC[C@H](F)C5)c(C#N)c4)c3o2)cc1 [Compound 187, 4-{7-[3-Cyano-4-((S)-3-fluoro-pyrrolidin-1-yl)-phenyl]-furo[3,2-b]pyridin-2-yl}-benzoic acid ethyl ester]",1000 to 5000 nM,100 to 1000 nM
"COc1cc(C(=O)N(C)CCO)cnc1-c1cc2ncc(F)c(-c3ccc(OC4CCOCC4)c(C#N)n3)c2o1 [Compound 354, 6-[7-[6-cyano-5-(oxan-4-yloxy)pyridin-2-yl]-6-fluorofuro[3,2-b]pyridin-2-yl]-N-(2-hydroxyethyl)-5-methoxy-N-methylpyridine-3-carboxamide hydrochloride]",100 to 1000 nM,1000 to 5000 nM

# Results, then the molecule that gave them:
IC50 (TBK1),IC50 (IKKε),Structure (SMILES)
100 to 1000 nM,100 to 1000 nM,"COc1cc(C(=O)N(C)C)ccc1-c1cc2ncc(Cl)c(-c3ccc(OC4CCOCC4)c(C#N)c3)c2o1 [Compound 265, 4-(6-chloro-7-(3-cyano-4-(tetrahydro-2H-pyran-4-yloxy)phenyl)furo[3,2-b]pyridin-2-yl)-3-methoxy-N,N-dimethylbenzamide]"
< 100 nM,< 100 nM,"COc1cc(C(=O)N(C)C)ccc1-c1cc2nccc(-c3ccc(O[C@H]4CCCNC4)c(C#N)c3)c2o1 [Compound 142, 4-{7-[3-Cyano-4-((S)-piperidin-3-yloxy)-phenyl]-furo[3,2-b]pyridin-2-yl}-3-methoxy-N,N-dimethyl-benzamide]"
< 100 nM,< 100 nM,"COc1cc(C(=O)N2CC3COCC3C2)ncc1-c1cc2nccc(-c3ccc(NC4CCOCC4)c(C#N)c3)c2o1 (stereo not shown) [Compound 421, 5-[2-[6-([hexahydro-1H-furo[3,4-c]pyrrol-5-yl]carbonyl)-4-methoxypyridin-3-yl]furo[3,2-b]pyridin-7-yl]-2-[(oxan-4-yl)amino]benzonitrile]"
< 100 nM,< 100 nM,"CN(C)C(=O)c1ccc(-c2cc3nccc(-c4ccc(OC5CCOCC5)c(C#N)c4)c3o2)c(Cl)c1 [Compound 239, 3-chloro-4-(7-(3-cyano-4-(tetrahydro-2H-pyran-4-yloxy)phenyl)furo[3,2-b]pyridin-2-yl)-N,N-dimethylbenzamide]"
< 100 nM,< 100 nM,"COc1cc(C(=O)N(C)CCO)ccc1-c1cc2nccc(-c3ccc(NC4CCOCC4)c(C#N)c3)c2o1 [Compound 230, 4-(7-(3-cyano-4-(tetrahydro-2H-pyran-4-ylamino)phenyl)furo[3,2-b]pyridin-2-yl)-N-(2-hydroxyethyl)-3-methoxy-N-methylbenzamide]"
< 100 nM,< 100 nM,"COc1cc(C(=O)N(C)C)cnc1-c1cc2nccc(-c3ccc(NC4CCOCC4)c(C#N)c3)c2o1 [Compound 270, 6-(7-(3-cyano-4-(tetrahydro-2H-pyran-4-ylamino)phenyl)furo[3,2-b]pyridin-2-yl)-5-methoxy-N,N-dimethylnicotinamide hydrochloride]"
< 100 nM,< 100 nM,"COc1cc(C(=O)N(C)C)ccc1-c1cc2nccc(-c3ccc(O[C@H]4CCNC4)c(C#N)c3)c2o1 [Compound 121, 4-{7-[3-Cyano-4-((S)-pyrrolidin-3-yloxy)-phenyl]-furo[3,2-b]pyridin-2-yl}-3-methoxy-N,N-dimethyl-benzamide]"
< 100 nM,< 100 nM,"COc1cc(C(=O)N(C)C)ccc1-c1cc2nccc(-c3ccc(N(C)C4CCOCC4)c(C#N)c3)c2o1 [Compound 227, 4-(7-(3-cyano-4-(methyl(tetrahydro-2H-pyran-4-yl)amino)phenyl)furo[3,2-b]pyridin-2-yl)-3-methoxy-N,N-dimethylbenzamide]"
< 100 nM,< 100 nM,"COc1cc(C(=O)N2CC3CCC2CO3)ccc1-c1cc2nccc(-c3ccc(OC4CCOCC4)c(C#N)c3)c2o1 (stereo not shown) [Compound 4, 5-{2-[2-Methoxy-4-(2-oxa-5-aza-bicyclo[2.2.2]octane-5-carbonyl)-phenyl]-furo[3,2-b]pyridin-7-yl}-2-(tetrahydro-pyran-4-yloxy)-benzonitrile]"
< 100 nM,< 100 nM,"COc1nc(C(=O)N(C)C)ccc1-c1cc2nccc(-c3ccc(OC4CCOCC4)c(C#N)c3)c2o1 [Compound 271, 5-(7-(3-cyano-4-(tetrahydro-2H-pyran-4-yloxy)phenyl)furo[3,2-b]pyridin-2-yl)-6-methoxy-N,N-dimethylpicolinamide]"
